{
  "source": "patent US20150307938A1",
  "about": "“METHOD TO IDENTIFY A NOVEL CLASS OF IMMUNOLOGIC ADJUVANTS” (Lancell, L.L.C., priority 2011, published 2015)",
  "key": {"[1]": {"test_system": "skin", "experiment": "Affymetrix microarray of skin, DBP-4 hr and analogs vs. untreated; gene selection by log-2 fold change, Wilcoxon, Kendall tau (Tables 8, 9)", "assay_type": "in vivo, mouse"}, "[2]": {"test_system": "skin dendritic cells", "experiment": "Flow cytometric analysis of Ahr−/− response to topical DBP", "details": "topical application"}},
  "data": [
    {"smiles": "COC(=O)c1ccccc1C(=O)OC", "note": "[DMP, dimethylphthalate]", "values": [
      {"measurement": "Log2 Expression Level", "setting": "[1]; gene #1 of Table 8", "value": 5.82},
      {"measurement": "Log2 Expression Level", "setting": "[1]; gene #2 of Table 8", "value": 6.47},
      {"measurement": "Log2 Expression Level", "setting": "[1]; gene #3 of Table 8", "value": 8.83},
      {"measurement": "Log2 Expression Level", "setting": "[1]; gene #4 of Table 8", "value": 8.83},
      {"measurement": "Log2 Expression Level", "setting": "[1]; gene #5 of Table 8", "value": 6.08},
      {"measurement": "Log2 Expression Level", "setting": "[1]; gene #6 of Table 8", "value": 6.09},
      {"measurement": "Log2 Expression Level", "setting": "[1]; gene #7 of Table 8", "value": 5.32},
      {"measurement": "Log2 Expression Level", "setting": "[1]; gene #8 of Table 8", "value": 6.09},
      {"measurement": "Log2 Expression Level", "setting": "[1]; gene #9 of Table 8", "value": 6.09},
      {"measurement": "Log2 Expression Level", "setting": "[1]; gene #10 of Table 8", "value": 6.09},
      {"measurement": "Log2 Expression Level", "setting": "[1]; gene #11 of Table 8", "value": 5.32},
      {"measurement": "Log2 Expression Level", "setting": "[1]; gene #12 of Table 8", "value": 5.32},
      {"measurement": "Log2 Expression Level", "setting": "[1]; gene #13 of Table 8", "value": 5.32},
      {"measurement": "Log2 Expression Level", "setting": "[1]; gene #14 of Table 8", "value": 4.91},
      {"measurement": "Log2 Expression Level", "setting": "[1]; gene #15 of Table 8", "value": 4.91},
      {"measurement": "Log2 Expression Level", "setting": "[1]; gene #16 of Table 8", "value": 6.50},
      {"measurement": "Log2 Expression Level", "setting": "[1]; gene #17 of Table 8", "value": 8.80},
      {"measurement": "Log2 Expression Level", "setting": "[1]; gene #18 of Table 8", "value": 8.80},
      {"measurement": "Log2 Expression Level", "setting": "[1]; gene #19 of Table 8", "value": 8.29},
      {"measurement": "Log2 Expression Level", "setting": "[1]; gene #20 of Table 8", "value": 8.26},
      {"measurement": "Log2 Expression Level", "setting": "[1]; gene #21 of Table 8", "value": 7.91},
      {"measurement": "Log2 Expression Level", "setting": "[1]; gene #22 of Table 8", "value": 5.99},
      {"measurement": "Log2 Expression Level", "setting": "[1]; gene #23 of Table 8", "value": 5.65},
      {"measurement": "Log2 Expression Level", "setting": "[1]; gene #24 of Table 8", "value": 7.33},
      {"measurement": "Log2 Expression Level", "setting": "[1]; gene #25 of Table 8", "value": 7.33},
      {"measurement": "Log2 Expression Level", "setting": "[1]; gene #26 of Table 8", "value": 7.55},
      {"measurement": "Log2 Expression Level", "setting": "[1]; gene #27 of Table 8", "value": 7.55},
      {"measurement": "Log2 Expression Level", "setting": "[1]; gene #28 of Table 8", "value": 7.55},
      {"measurement": "Log2 Expression Level", "setting": "[1]; gene #29 of Table 8", "value": 5.77},
      {"measurement": "Log2 Expression Level", "setting": "[1]; gene #30 of Table 8", "value": 8.30},
      {"measurement": "Log2 Expression Level", "setting": "[1]; gene #31 of Table 8", "value": 8.30},
      {"measurement": "Log2 Expression Level", "setting": "[1]; gene #32 of Table 8", "value": 8.30},
      {"measurement": "Log2 Expression Level", "setting": "[1]; gene #33 of Table 8", "value": 5.48},
      {"measurement": "Log2 Expression Level", "setting": "[1]; gene #34 of Table 8", "value": 6.50},
      {"measurement": "Log2 Expression Level", "setting": "[1]; gene #35 of Table 8", "value": 6.50},
      {"measurement": "Log2 Expression Level", "setting": "[1]; gene #36 of Table 8", "value": 8.83},
      {"measurement": "Log2 Expression Level", "setting": "[1]; gene #37 of Table 8", "value": 8.83},
      {"measurement": "Log2 Expression Level", "setting": "[1]; gene #38 of Table 8", "value": 8.83},
      {"measurement": "Log2 Expression Level", "setting": "[1]; gene #39 of Table 8", "value": 7.03},
      {"measurement": "Log2 Expression Level", "setting": "[1]; gene #40 of Table 8", "value": 7.09},
      {"measurement": "Log2 Expression Level", "setting": "[1]; gene #41 of Table 8", "value": 7.32},
      {"measurement": "Log2 Expression Level", "setting": "[1]; gene #42 of Table 8", "value": 6.91},
      {"measurement": "Log2 Expression Level", "setting": "[1]; gene #43 of Table 8", "value": 6.91},
      {"measurement": "Log2 Expression Level", "setting": "[1]; gene #44 of Table 8", "value": 7.32},
      {"measurement": "Log2 Expression Level", "setting": "[1]; gene #45 of Table 8", "value": 6.91},
      {"measurement": "Log2 Expression Level", "setting": "[1]; gene #46 of Table 8", "value": 7.32},
      {"measurement": "Log2 Expression Level", "setting": "[1]; gene #47 of Table 8", "value": 8.08},
      {"measurement": "Log2 Expression Level", "setting": "[1]; gene #48 of Table 8", "value": 8.08},
      {"measurement": "Log2 Expression Level", "setting": "[1]; gene #49 of Table 8", "value": 8.08},
      {"measurement": "Log2 Expression Level", "setting": "[1]; gene #50 of Table 8", "value": 9.13},
      {"measurement": "Log2 Expression Level", "setting": "[1]; gene #51 of Table 8", "value": 7.49},
      {"measurement": "Log2 Expression Level", "setting": "[1]; gene #52 of Table 8", "value": 9.61},
      {"measurement": "Log2 Expression Level", "setting": "[1]; gene #53 of Table 8", "value": 8.18},
      {"measurement": "Log2 Expression Level", "setting": "[1]; gene #54 of Table 8", "value": 9.63},
      {"measurement": "Log2 Expression Level", "setting": "[1]; gene #55 of Table 8", "value": 6.47},
      {"measurement": "Log2 Expression Level", "setting": "[1]; gene #56 of Table 8", "value": 9.09},
      {"measurement": "Log2 Expression Level", "setting": "[1]; gene #57 of Table 8", "value": 8.30},
      {"measurement": "Log2 Expression Level", "setting": "[1]; gene #58 of Table 8", "value": 8.81},
      {"measurement": "Log2 Expression Level", "setting": "[1]; gene #59 of Table 8", "value": 8.07},
      {"measurement": "Log2 Expression Level", "setting": "[1]; gene #60 of Table 8", "value": 6.96},
      {"measurement": "Log2 Expression Level", "setting": "[1]; gene #61 of Table 8", "value": 11.13},
      {"measurement": "Log2 Expression Level", "setting": "[1]; gene #62 of Table 8", "value": 7.95},
      {"measurement": "Log2 Expression Level", "setting": "[1]; gene #63 of Table 8", "value": 10.28},
      {"measurement": "Log2 Expression Level", "setting": "[1]; gene #64 of Table 8", "value": 10.44},
      {"measurement": "Log2 Expression Level", "setting": "[1]; gene #65 of Table 8", "value": 6.81},
      {"measurement": "Log2 Expression Level", "setting": "[1]; gene #66 of Table 8", "value": 8.09},
      {"measurement": "Log2 Expression Level", "setting": "[1]; gene #67 of Table 8", "value": 4.20},
      {"measurement": "Log2 Expression Level", "setting": "[1]; gene #68 of Table 8", "value": 7.36},
      {"measurement": "Log2 Expression Level", "setting": "[1]; gene #69 of Table 8", "value": 5.28},
      {"measurement": "Log2 Expression Level", "setting": "[1]; gene #70 of Table 8", "value": 3.86},
      {"measurement": "Log2 Expression Level", "setting": "[1]; gene #71 of Table 8", "value": 7.42},
      {"measurement": "Log2 Expression Level", "setting": "[1]; gene #72 of Table 8", "value": 7.77},
      {"measurement": "Log2 Expression Level", "setting": "[1]; gene #73 of Table 8", "value": 5.38},
      {"measurement": "Log2 Expression Level", "setting": "[1]; gene #74 of Table 8", "value": 7.07},
      {"measurement": "Log2 Expression Level", "setting": "[1]; gene #75 of Table 8", "value": 8.29},
      {"measurement": "Log2 Expression Level", "setting": "[1]; gene #76 of Table 8", "value": 4.15},
      {"measurement": "Log2 Expression Level", "setting": "[1]; gene #77 of Table 8", "value": 8.59},
      {"measurement": "Log2 Expression Level", "setting": "[1]; gene #78 of Table 8", "value": 9.90},
      {"measurement": "Log2 Expression Level", "setting": "[1]; gene #79 of Table 8", "value": 7.10},
      {"measurement": "Log2 Expression Level", "setting": "[1]; gene #80 of Table 8", "value": 12.64},
      {"measurement": "Log2 Expression Level", "setting": "[1]; gene #81 of Table 8", "value": 5.57},
      {"measurement": "Log2 Expression Level", "setting": "[1]; gene #82 of Table 8", "value": 4.77},
      {"measurement": "Log2 Expression Level", "setting": "[1]; gene #83 of Table 8", "value": 6.70},
      {"measurement": "Log2 Expression Level", "setting": "[1]; gene #84 of Table 8", "value": 6.49},
      {"measurement": "Log2 Expression Level", "setting": "[1]; gene #85 of Table 8", "value": 4.59},
      {"measurement": "Log2 Expression Level", "setting": "[1]; gene #86 of Table 8", "value": 6.27},
      {"measurement": "Log2 Expression Level", "setting": "[1]; gene #87 of Table 8", "value": 8.57},
      {"measurement": "Log2 Expression Level", "setting": "[1]; gene #88 of Table 8", "value": 5.28},
      {"measurement": "Log2 Expression Level", "setting": "[1]; gene #89 of Table 8", "value": 5.43},
      {"measurement": "Log2 Expression Level", "setting": "[1]; gene #90 of Table 8", "value": 9.55},
      {"measurement": "Log2 Expression Level", "setting": "[1]; gene #91 of Table 8", "value": 6.99},
      {"measurement": "Log2 Expression Level", "setting": "[1]; gene #92 of Table 8", "value": 6.96},
      {"measurement": "Log2 Expression Level", "setting": "[1]; gene #93 of Table 8", "value": 8.40},
      {"measurement": "Log2 Expression Level", "setting": "[1]; gene #94 of Table 8", "value": 7.22},
      {"measurement": "Log2 Expression Level", "setting": "[1]; gene #95 of Table 8", "value": 5.77},
      {"measurement": "Log2 Expression Level", "setting": "[1]; gene #96 of Table 8", "value": 7.21},
      {"measurement": "Log2 Expression Level", "setting": "[1]; gene #97 of Table 8", "value": 5.27},
      {"measurement": "Log2 Expression Level", "setting": "[1]; gene #98 of Table 8", "value": 4.12},
      {"measurement": "Log2 Expression Level", "setting": "[1]; gene #99 of Table 8", "value": 8.88},
      {"measurement": "Log2 Expression Level", "setting": "[1]; gene #100 of Table 8", "value": 6.73}
    ]},
    {"smiles": "O=[N+]([O-])c1ccc(F)c([N+](=O)[O-])c1", "note": "[dinitrofluorobenzene, reference compound]", "values": [
      {"measurement": "skin dendritic cell response in AhR−/− mice", "setting": "[2]", "value": "severely impaired"}
    ]}
  ]
}
